Results: patent US7291353B2, “Anti-peptic ulcer activity of an extract of a flower of Woodfordia fruticosa” (Council of Scientific and Industrial Research, priority 2002, dated 2007)

What was measured:
[1] = test system: frog gastric mucosa (histamine stimulated acid secretion); assay: Frog Chamber Study: histamine-stimulated acid secretion of chambered frog gastric mucosa; parameters: species or system Rana hexadactyla; key to Comment (qualitative rank score): the rank score for both cimetidine and omeprazole (considered as 100%) were given as +8; details: for concentration enough to block almost complete acid secretion: 0.1-0.2 mM histamine; for Comment (qualitative rank score): cimetidine and omeprazole (100%) = +8
Method: Frog Chamber Study: The in organ experiments using the whole frog stomach to assess the anti-HCl secreting potential of extracts and their fractions were carried out employing Frog Chamber Model (for detail about the logic of the experiment and the information to be generated.
Frog Chamber Study: The study is based on the principle of ‘No Acid No Ulcer’. […] In this in vitro study, frog stomach is mounted in a plastic tube (Using Chamber Study). Employing histamine as the ulcerogen (final common mediator of all the physiological secretagogues), the rate and extent of proton secretion are quantitatively assessed as a function of the amount of herbal preparation and duration of treatment.
The experimental approach, as standardized through a series of experiments with more than 200 plant extracts, has been to measure, over time, (i) basal acid secretion, (ii) histamine-stimulated acid secretion, (iii) extract-induced (two doses) acid secretion, followed by (iv) extract-withdrawn acid secretion. For a particular stomach, after the basal secretion level is known, histamine is inserted from the nutrient side to see maximum acid secreting potential. Thereafter, an extract is inserted (first lower dose and then higher dose) from the nutrient side in presence of continuous supply of histamine to mimic ulcerative situation, followed by withdrawal of the extract by washing the nutrient side with histamine-containing nutrient medium. This latter phase is expected to generate information regarding the efficacy of the extract, upon its withdrawal, towards inhibiting the continuously existing acid secreting phase.
Experiments are carried out with in vitro preparations of gastric mucosa mounted over one end of a plastic tube (mounted area is 1.76 cm^2) with the mucosal surface facing out. The mounted tissue is placed vertically inside a 25-ml container. The nutrient solution is regular Frog Ringer solution and the luminal side (secretory side) is bathed in an unbuffered NaCl solution. The volumes of nutrient and mucosal solutions are adjusted in a way so as to be able to maintain constant hydrostatic pressure in the chamber throughout the duration of the experiment. Both solutions are slowly and continuously bubbled with O2 during the entire duration of the experiment. The mucosal solution is slowly and continuously stirred with a magnetic stirrer and collected at 15-min intervals in thoroughly washed clean vials.

[2] = test system: Helicobacter pylori virulent strain 121 A; assay: Anti H. pylori Activity, Disc Diffusion Sensitivity Test, strain 121A; type: cell-based; details: 0.5 mg/disc; one range stated for both the strains (121A)
[3] = test system: Helicobacter pylori avirulent strain 80A; assay: Anti H. pylori Activity, Disc Diffusion Sensitivity Test, strain 80A; type: cell-based; details: 0.5 mg/disc; one range stated for both the strains (80A)
Gastric H^+, K^+-ATPase = biological target: T1, Gastric H^+, K^+-ATPase (Sus scrofa, UniProt P19156); assay: Anti Gastric Proton Pump Activity Study; type: biochemical, pig; details: dose range of 0.3-3.0 mg/assay
T1 construct: These membranes are primarily enriched in tubulovescicular and apical membranes; from tissue; host or cells: pig stomach (gastric mucosa), tubulovesicular and apical membranes
Text: The applicant have selected one whole animal model—Cold Restraint Stress Ulcer in Rat (in vivo) to assess ulcer protection capacity of the extracts [Senay E. C. and Levine R. J., Proc Soc. Exp. Biol. Med. 124, 1221 (1967)], one isolated stomach model—Chambered Frog Gastric Mucosa (in organ) to assess anti HCl secretion potential [Durbin R. P. and Kircher A. B., Biochem. Biophys. Acta, 321, 553 (1973); Ray, T. K. and Tague L. R., Biochem. Pharmacol. 29, 2755 (1980); Ray et al., Proc. Natl. Acad. Sci. (USA) 79, 1448 (1982)], gastric proton pump inhibition model using pig gastric H^+, K^+-ATPase-rich apical and tubulovesicular membranes (in vitro) to examine enzyme inhibition [Bandopadhyay, S. Das, P. K., Wright, M. V., Nandi, J., Bhattacharyya, D. and Ray, T. K., J. Biol. Chem. 262, 5664 (1987)], and anti Helicobacter pylori activity assessment by Disc Diffusion Sensitivity Assay [Glupczynski, Y. In: Helicobacter pylori: techniques for clinical diagnosis & basic research, (Eds. Adrian Lee & Francis Megraud), W. B. Saunders Company Ltd., 1996, pp. 17-32].
3. […] K^+-stimulated activity, referred to as H^+, K^+-ATPase, was calculated as the difference between the activities obtained in presence of Mg^2+ plus K^+ and the basal activity (Mg^2+-ATPase) in presence of MG^2+ alone.

T1 sequence (P19156 2-1034 limits assumed): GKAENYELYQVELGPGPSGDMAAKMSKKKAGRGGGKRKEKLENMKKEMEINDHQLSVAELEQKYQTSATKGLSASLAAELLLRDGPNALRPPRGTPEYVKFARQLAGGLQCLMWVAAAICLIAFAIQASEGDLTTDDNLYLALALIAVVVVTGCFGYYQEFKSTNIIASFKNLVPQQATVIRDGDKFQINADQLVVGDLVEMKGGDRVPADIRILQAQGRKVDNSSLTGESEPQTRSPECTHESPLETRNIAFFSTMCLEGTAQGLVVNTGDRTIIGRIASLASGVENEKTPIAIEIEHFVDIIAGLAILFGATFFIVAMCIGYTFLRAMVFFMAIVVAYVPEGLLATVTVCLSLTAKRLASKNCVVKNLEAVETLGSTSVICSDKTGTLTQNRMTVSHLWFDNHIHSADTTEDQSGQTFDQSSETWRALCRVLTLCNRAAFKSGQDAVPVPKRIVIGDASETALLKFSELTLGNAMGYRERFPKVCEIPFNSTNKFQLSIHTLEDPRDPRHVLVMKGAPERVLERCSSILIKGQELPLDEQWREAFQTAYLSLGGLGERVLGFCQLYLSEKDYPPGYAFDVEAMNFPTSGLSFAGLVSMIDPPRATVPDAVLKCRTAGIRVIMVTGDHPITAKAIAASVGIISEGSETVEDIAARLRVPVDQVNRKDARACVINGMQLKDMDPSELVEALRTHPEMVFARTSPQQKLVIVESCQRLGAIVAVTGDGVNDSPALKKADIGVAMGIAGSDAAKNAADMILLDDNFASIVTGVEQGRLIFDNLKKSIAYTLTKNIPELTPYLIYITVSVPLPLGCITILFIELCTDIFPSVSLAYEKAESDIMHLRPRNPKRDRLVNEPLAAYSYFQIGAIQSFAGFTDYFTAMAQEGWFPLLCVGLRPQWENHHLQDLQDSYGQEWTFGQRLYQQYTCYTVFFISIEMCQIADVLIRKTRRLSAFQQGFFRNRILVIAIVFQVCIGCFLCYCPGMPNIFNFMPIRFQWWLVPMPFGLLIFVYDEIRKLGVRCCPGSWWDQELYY
T1 sequence (P18434 whole entry partner): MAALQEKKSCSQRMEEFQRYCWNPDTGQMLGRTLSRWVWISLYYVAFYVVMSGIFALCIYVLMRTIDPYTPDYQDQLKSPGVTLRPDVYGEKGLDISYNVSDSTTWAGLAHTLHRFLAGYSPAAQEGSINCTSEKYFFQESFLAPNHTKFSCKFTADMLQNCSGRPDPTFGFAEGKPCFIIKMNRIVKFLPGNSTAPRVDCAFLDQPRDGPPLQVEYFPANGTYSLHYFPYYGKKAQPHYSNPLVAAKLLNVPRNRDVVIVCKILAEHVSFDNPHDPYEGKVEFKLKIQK

## CN/C(=N/CCSCc1nc[nH]c1C)NC#N [cimetidine]
[1]; added from nutrient side
  concentration enough to block almost complete acid secretion: 0.1 to 0.2 mM
[1]
  Comment (qualitative rank score): +8

## CC[C@H]1OC(=O)[C@H](C)[C@@H](O[C@H]2C[C@@](C)(OC)[C@@H](O)[C@H](C)O2)[C@H](C)[C@@H](O[C@@H]2O[C@H](C)C[C@H](N(C)C)[C@H]2O)[C@](C)(OC)C[C@@H](C)C(=O)[C@H](C)[C@@H](O)[C@]1(C)O [clarithromycin]
[2]
  inhibition zone diameter: 2.3-2.7 cm
[3]
  inhibition zone diameter: 2.3-2.7 cm

## COc1ccc2[nH]c([S+]([O-])Cc3ncc(C)c(OC)c3C)nc2c1 (stereo not shown) [omeprazole]
Gastric H^+, K^+-ATPase
  % inhibition of H^+, K^+-ATPase: 50-100%
[1]; added from secretory side
  concentration enough to block almost complete acid secretion: 1 to 10 mM
[1]
  Comment (qualitative rank score): +8
